Target: T1, CKL4 (Arabidopsis thaliana, UniProt Q8LPI7)
T1 sequence (Q8LPI7 1-414): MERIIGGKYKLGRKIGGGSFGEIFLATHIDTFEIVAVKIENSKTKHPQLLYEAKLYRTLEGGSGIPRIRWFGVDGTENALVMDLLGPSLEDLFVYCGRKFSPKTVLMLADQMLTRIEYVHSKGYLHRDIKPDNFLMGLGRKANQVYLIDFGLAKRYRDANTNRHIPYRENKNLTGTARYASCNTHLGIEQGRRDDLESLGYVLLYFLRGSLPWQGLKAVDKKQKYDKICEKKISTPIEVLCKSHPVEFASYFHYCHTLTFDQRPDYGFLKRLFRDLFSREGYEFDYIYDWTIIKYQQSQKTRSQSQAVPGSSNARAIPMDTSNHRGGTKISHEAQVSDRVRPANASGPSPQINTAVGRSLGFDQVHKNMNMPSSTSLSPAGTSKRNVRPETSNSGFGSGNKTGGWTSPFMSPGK
Assay: in vitro kinase assay with isotope-labeled ATP
Assay type: biochemical

O=C1NCCc2[nH]c(-c3ccncc3)cc21 [PHA767491]
IC50: ~5 µM
